Measurements as given in US20220324835A1 (Nurix Therapeutics, Inc., priority 2018, published 2022).
Where two headings read alike, the source gives them in different places.

Assays:
T-cell = assay: IL-2 secretion from T-cells co-stimulated with anti-CD3 and anti-CD28 antibody (Biological Example 2); assay type: cell-based, human; conditions: Homo sapiens, T-cell, read-out: IL-2 secretion Anti-CD3/Anti-CD28 stimulation; for fold induction at 0.3 µM: 0.3 μM Cbl-b inhibitor; for fold induction at 1 µM: 1 μM Cbl-b inhibitor; for fold induction at 4 µM: 4 μM Cbl-b inhibitor
Summary of the method: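 No assay protocol given; T-cells stimulated with anti-CD3 alone or anti-CD3 plus anti-CD28, with or without Cbl-b inhibitor. Activation read as IL-2 secretion or CD25 surface staining, expressed as fold over baseline from uninhibited cells […].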

Cbl-b (residues 36-427) = Cbl-b (residues 36-427) (Homo sapiens, UniProt Q13191); assay: Cbl-b binding assay (SPR, Biacore T200); conditions: 20° C., 1:1 binding model
Summary of the method: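 Affinities derived from global 1:1 steady-state or kinetic fits of double-referenced, solvent-corrected SPR data, 20 °C, NeutrAvidin-capture chip. Compound series (top 100 or 50 μM, 8–10 points) injected 50 s, 90–180 s dissociation. Asterisked values used 50 mM instead of 100 mM NaCl and 30 nM Src kinase.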

[1] = fold change over baseline, primary human total T-cells
[2] = fold change over baseline (anti-CD3/anti-CD28 stimulated T-cells without inhibitor)

Chain of Cbl-b (residues 36-427) (Q13191 36-427): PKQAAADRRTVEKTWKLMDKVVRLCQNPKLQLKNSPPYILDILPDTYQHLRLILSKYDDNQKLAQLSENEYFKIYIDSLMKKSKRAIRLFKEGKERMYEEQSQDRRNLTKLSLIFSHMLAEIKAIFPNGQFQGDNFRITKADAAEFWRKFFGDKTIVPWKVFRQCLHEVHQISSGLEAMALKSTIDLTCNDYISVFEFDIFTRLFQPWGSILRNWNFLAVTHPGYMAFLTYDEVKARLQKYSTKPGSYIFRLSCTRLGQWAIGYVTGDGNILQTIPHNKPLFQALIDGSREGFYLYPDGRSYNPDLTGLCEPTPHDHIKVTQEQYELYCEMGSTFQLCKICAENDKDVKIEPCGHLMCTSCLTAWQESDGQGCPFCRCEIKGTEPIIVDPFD

| Structure (SMILES) | fold induction at 0.3 µM (T-cell; [1]) | fold induction at 1 µM (T-cell; [1]) | fold induction at 4 µM (T-cell; [1]) | Kd (Cbl-b (residues 36-427)) | fold induction at 0.3 µM (T-cell; [2]) | fold induction at 1 µM (T-cell; [2]) |
| --- | --- | --- | --- | --- | --- | --- |
| C[C@H](Cc1nnc[nH]1)c1cccc(N2Cc3c(cccc3C(F)(F)F)C2=O)c1 [Compound 262, (R)-2-(3-(1-(4H-1,2,4-triazol-3-yl)propan-2-yl)phenyl)-4-(trifluoromethyl)isoindolin-1-one] | < 1 | < 1 | 1.01 to 2.5 | 0.301 to 1 µM |  |  |
| C[C@H](Cc1nncn1C1CC1)c1cccc(N2Cc3c(cccc3C(F)(F)F)C2=O)c1 [Compound 265, (R)-2-(3-(1-(4-cyclopropyl-4H-1,2,4-triazol-3-yl)propan-2-yl)phenyl)-4-(trifluoromethyl)isoindolin-1-one] | < 1 | 1.01 to 2.5 | 1.01 to 2.5 | 3 to 10 µM |  |  |
| Cc1[nH]cnc1CC(C)c1cccc(N2Cc3c(cccc3C(F)(F)F)C2=O)c1 (centres unmarked) [Compound 272, 2-[3-[1-(5-methyl-1H-imidazol-4-yl)propan-2-yl]phenyl]-4-(trifluoromethyl)isoindolin-1-one] | < 1 | < 1 | < 1 | 3 to 10 µM |  |  |
| C[C@H](Cc1nncn1C)c1cc(F)cc(N2Cc3c(cccc3C(F)(F)F)C2=O)c1 [Compound 281a, 2-[3-Fluoro-5-[(1R)-1-methyl-2-(4-methyl-1,2,4-triazol-3-yl)ethyl]phenyl]-4-(trifluoromethyl)isoindolin-1-one] | 1.01 to 2.5 | 1.01 to 2.5 | 2.51 to 5 | 0.1 to 0.3 µM |  |  |
| Cn1cnnc1[C@@H]1C[C@@H]1c1cccc(N2Cc3c(cccc3C(F)(F)F)C2=O)c1 [Compound 282, 2-(3-((1S,2R)-2-(4-methyl-4H-1,2,4-triazol-3-yl)cyclopropyl)phenyl)-4-(trifluoromethyl)isoindolin-1-one] | < 1 | 1.01 to 2.5 | 2.51 to 5 | 0.301 to 1 µM |  |  |
| Cn1cnnc1[C@@H]1CC[C@@H]1c1cccc(N2Cc3c(cccc3C(F)(F)F)C2=O)c1 [Compound 283b, 2-(3-((1S,2R)-2-(4-methyl-4H-1,2,4-triazol-3-yl)cyclobutyl)phenyl)-4-(trifluoromethyl)isoindolin-1-one] | 5 to 7.5 | > 7.5 | > 7.5 | 0.301 to 1 µM |  |  |
| Cc1ccc(C(=O)Nc2cccc(C(C)C(F)(F)c3nncn3C)c2)nc1C1CC1 (centres unmarked) [Compound 286, 6-cyclopropyl-N-(3-(1,1-difluoro-1-(4-methyl-4H-1,2,4-triazol-3-yl)propan-2-yl)phenyl)-5-methylpicolinamide] | 1.01 to 2.5 | 1.01 to 2.5 | 2.51 to 5 | 0.301 to 1 µM |  |  |
| Cn1cnnc1C[C@](C)(F)c1cccc(N2Cc3c(cccc3C(F)(F)F)C2=O)c1 [Compound 298b, (S)-2-(3-(2-fluoro-1-(4-methyl-4H-1,2,4-triazol-3-yl)propan-2-yl)phenyl)-4-(trifluoromethyl)isoindolin-1-one] | 1.01 to 2.5 | 1.01 to 2.5 | 1.01 to 2.5 | 0.1 to 0.3 µM |  |  |
| C[C@H](Cc1nncn1C)c1ccnc(NC(=O)c2cccc(C(F)(F)F)n2)c1 [Compound 302, (R)-N-(4-(1-(4-methyl-4H-1,2,4-triazol-3-yl)propan-2-yl)pyridin-2-yl)-6-(trifluoromethyl)picolinamide] | 2.51 to 5 | 2.51 to 5 | > 7.5 | 1 to 3 µM |  |  |
| C[C@H](Cc1nncn1C)c1ccnc(N2Cc3c(cccc3C(F)(F)F)C2=O)c1 [Compound 304b, (R)-2-(4-(1-(4-methyl-4H-1,2,4-triazol-3-yl)propan-2-yl)pyridin-2-yl)-4-(trifluoromethyl)isoindolin-1-one] | < 1 | < 1 | 1.01 to 2.5 | 1 to 3 µM |  |  |
| C[C@H](Cc1nncn1C)c1cccc(NC(=O)c2nc(C(F)(F)F)c[nH]2)c1 [Compound 326, (R)-N-(3-(1-(4-methyl-4H-1,2,4-triazol-3-yl)propan-2-yl)phenyl)-4-(trifluoromethyl)-1H-imidazole-2-carboxamide] | 1.01 to 2.5 | 2.51 to 5 | 2.51 to 5 | 0.1 to 0.3 µM |  |  |
| Cn1cnnc1[C@@H]1C[C@@H]1c1cccc(NC(=O)c2nc3c(C(F)(F)F)cccc3[nH]2)c1 [Compound 332, N-(3-((1S,2R)-2-(4-methyl-4H-1,2,4-triazol-3-yl)cyclopropyl)phenyl)-4-(trifluoromethyl)-1H-benzo[d]imidazole-2-carboxamide] | 1.01 to 2.5 | 1.01 to 2.5 | 2.51 to 5 | 0.301 to 1 µM |  |  |
| Cc1cc(C(=O)Nc2cccc([C@@](C)(F)C(F)(F)c3nncn3C)c2)nc(C2CC2)n1 [Compound 344, (R)-2-Cyclopropyl-6-methyl-N-(3-(1,1,2-trifluoro-1-(4-methyl-4H-1,2,4-triazol-3-yl)propan-2-yl)phenyl)pyrimidine-4-carboxamide] | 1.01 to 2.5 | 2.51 to 5 | > 7.5 | < 0.1 µM |  |  |
| C[C@H](Cc1nncn1C)c1cc(NCCO)nc(N2Cc3c(cccc3C(F)(F)F)C2=O)c1 [Compound 357, (R)-2-(6-(2-hydroxyethylamino)-4-(1-(4-methyl-4H-1,2,4-triazol-3-yl)propan-2-yl)pyridin-2-yl)-4-(trifluoromethyl)isoindolin-1-one] | 1.01 to 2.5 | 1.01 to 2.5 | 2.51 to 5 | 0.1 to 0.3 µM |  |  |
| C[C@H](Cc1nncn1C)c1cc(-c2cn[nH]c2)nc(N2Cc3c(cccc3C(F)(F)F)C2=O)c1 [Example 684, (R)-2-(4-(1-(4-methyl-4H-1,2,4-triazol-3-yl)propan-2-yl)-6-(1H-pyrazol-4-yl)pyridin-2-yl)-4-(trifluoromethyl)isoindolin-1-one] |  |  |  | 1 to 3 µM | < 1 | < 1 |
